We go through 18 compounds from patent US9376420B2 (YUHAN CORPORATION, priority 2012, dated 2016).

For this assay, the target named is T1, human LXRβ (Homo sapiens, UniProt P55055).
T1 construct: expressed in transfected cells; host or cells: HEK293 cells (ATCC CRL-1573), transient transfection with pFA-hLXRβ/GAL4 and pUAS
T1 sequence (P55055 222-460 limits assumed): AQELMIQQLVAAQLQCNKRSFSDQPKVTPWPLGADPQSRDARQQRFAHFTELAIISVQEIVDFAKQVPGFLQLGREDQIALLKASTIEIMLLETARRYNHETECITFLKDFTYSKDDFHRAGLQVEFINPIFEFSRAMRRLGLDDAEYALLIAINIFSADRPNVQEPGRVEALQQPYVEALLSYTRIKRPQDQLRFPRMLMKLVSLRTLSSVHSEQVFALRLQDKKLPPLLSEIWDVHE
Description: Assay for Transcriptional Activity of LXRβ (GAL4-hLXRβ LBD luciferase reporter, transient transfection). It is filed as cell-based. The note with it: HEK293 cells transfected with pFA-hLXRβ/GAL4 and pUAS, 24 hours; for Emax: fold value in comparison with the control (DMSO-treated group); for EC50: increase of transcriptional activity of LXRβ, average of three independent tests. An outline of the steps:
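HEK293 cells transiently co-transfected with GAL4-hLXRβ LBD and 5×GAL4-UAS luciferase reporter, treated 24 h at 37 °C with compounds over 9 points (0.01–50 μM, half-log). Luminescence read after lysis; EC50 from four-parameter fit, mean of three independent tests, with a known LXR agonist as positive control.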
A general note: Reporter assays use an easily measured gene product as a stand-in for the process of interest.

Usually EC50 stands for the concentration that produces a half-maximal response. Read a high EC50 as weaker potency.

Compound `COc1ccc(-c2ccc(C3CC(C(O)(C(F)(F)F)C(F)(F)F)=NN3c3ccc(F)cc3F)cc2)cn1` (stereo not drawn) [Example 370, 1-(2,4-difluoro-phenyl)-5-(4-(6-methoxy-pyridin-3-yl)-phenyl)-3-[di-(trifluoromethyl)-hydroxy-methyl]-4,5-dihydro-1H-pyrazole] had an Emax of 36 fold and an EC50 of 821 nM.

For the compound `Cc1ccccc1-c1ccc(C2CC(C(O)(C(F)(F)F)C(F)(F)F)=NN2c2ccc(F)cc2F)cc1` (stereo not drawn) [Example 371, 1-(2,4-difluoro-phenyl)-5-(2′-methyl-biphenyl-4-yl)-3-[di-(trifluoromethyl)-hydroxy-methyl]-4,5-dihydro-1H-pyrazole], the Emax was determined as 34 fold and the EC50 came to 636 nM.

As to `OC(C1=NN(c2ccc(F)cc2F)C(c2ccc(-c3cncnc3)cc2)C1)(C(F)(F)F)C(F)(F)F` (stereo not drawn) [Example 372, 1-(2,4-difluoro-phenyl)-5-(4-pyrimidin-5-yl-phenyl)-3-[di-(trifluoromethyl)-hydroxy-methyl]-4,5-dihydro-1H-pyrazole], the Emax was determined as 42 fold and the response was half-maximal at 412 nM (EC50).

In turn, `OC(C1=NN(c2ccc(F)cc2F)C(c2ccc(-c3ccc(-n4cnnn4)cc3)cc2)C1)(C(F)(F)F)C(F)(F)F` (stereo not drawn) [Example 373, 1-(2,4-difluoro-phenyl)-5-(4′-tetrazol-1-yl-biphenyl-4-yl)-3-[di-(trifluoromethyl)-hydroxy-methyl]-4,5-dihydro-1H-pyrazole] showed an Emax of 39 fold and a half-maximal effective concentration (EC50) of 551 nM.

Take `Cn1c(-c2ccc(C3CC(C(O)(C(F)(F)F)C(F)(F)F)=NN3c3ccc(F)cc3F)cc2)cc2ccccc21` (stereo not drawn) [Example 374, 1-(2,4-difluoro-phenyl)-5-[4-(1-methyl-1H-indol-2-yl)-phenyl]-3-[di-(trifluoromethyl)-hydroxy-methyl]-4,5-dihydro-1H-pyrazole]: the Emax amounted to 60 fold and the EC50 was determined as 678 nM.

Turning to `Cc1ncccc1-c1ccc(C2CC(C(O)(C(F)(F)F)C(F)(F)F)=NN2c2ccc(F)cc2F)cc1` (stereo not drawn) [Example 376, 1-(2,4-difluoro-phenyl)-5-(4-(2-methyl-pyridin-3-yl)-phenyl)-3-[di-(trifluoromethyl)-hydroxy-methyl]-4,5-dihydro-1H-pyrazole], the Emax was 39 fold and it took 325 nM to reach a half-maximal effect (EC50).

Regarding `OC(C1=NN(c2ccc(F)cc2F)C(c2ccc(-c3ccc(C(F)(F)F)nc3)cc2)C1)(C(F)(F)F)C(F)(F)F` (stereo not drawn) [Example 377, 1-(2,4-difluoro-phenyl)-5-[4-(6-trifluoromethyl-pyridin-3-yl)-phenyl]-3-[di-(trifluoromethyl)-hydroxy-methyl]-4,5-dihydro-1H-pyrazole], the Emax was 15 fold and the EC50 came to 890 nM.

Compound `CCOC(=O)c1cncc(-c2ccc(C3CC(C(O)(C(F)(F)F)C(F)(F)F)=NN3c3ccc(F)cc3F)cc2)c1` (stereo not drawn) [Example 378] came in with an Emax of 30 fold and an EC50 of 744 nM.

Regarding `COc1ncc(-c2ccc(C3CC(C(O)(C(F)(F)F)C(F)(F)F)=NN3c3ccc(F)cc3F)cc2)cc1C=O` (stereo not drawn) [Example 379, 1-(2,4-difluoro-phenyl)-5-[4-(5-formyl-6-methoxy-pyridin-3-yl)-phenyl)-3-[di-(trifluoromethyl)-hydroxy-methyl]-4,5-dihydro-1H-pyrazole], the Emax amounted to 35 fold and a half-maximal effect (EC50) was put at 745 nM.

`N#Cc1ncccc1-c1ccc(C2CC(C(O)(C(F)(F)F)C(F)(F)F)=NN2c2ccc(F)cc2F)cc1` (stereo not drawn) [Example 380, 5-[4-(2-cyano-pyridin-3-yl)-phenyl)-1-(2,4-difluoro-phenyl)-3-[di-(trifluoromethyl)-hydroxy-methyl]-4,5-dihydro-1H-pyrazole] yielded an Emax of 38 fold and an EC50 of 450 nM.

`OC(C1=NN(c2ccc(F)cc2F)C(c2ccc(-c3cncc(F)c3)cc2)C1)(C(F)(F)F)C(F)(F)F` (stereo not drawn) [Example 381, 1-(2,4-difluoro-phenyl)-5-[4-(5-fluoro-pyridin-3-yl)-phenyl)-3-[di-(trifluoromethyl)-hydroxy-methyl]-4,5-dihydro-1H-pyrazole] yielded an Emax of 50 fold and an EC50 of 448 nM.

With `CSc1ccc(-c2ccc(C3CC(C(O)(C(F)(F)F)C(F)(F)F)=NN3c3ccc(F)cc3F)cc2)cn1` (stereo not drawn) [Example 382, 1-(2,4-difluoro-phenyl)-5-[4-(6-methanesulfanyl-pyridin-3-yl)-phenyl]-3-[di-(trifluoromethyl)-hydroxy-methyl]-4,5-dihydro-1H-pyrazole], the Emax was 44 fold and the EC50 turned out to be 772 nM.

In turn, `COc1cc(C)c(-c2ccc(C3CC(C(O)(C(F)(F)F)C(F)(F)F)=NN3c3ccc(F)cc3F)cc2)cn1` (stereo not drawn) [Example 383, 1-(2,4-difluoro-phenyl)-5-[4-(6-methoxy-4-methyl-pyridin-3-yl)-phenyl]-3-[di-(trifluoromethyl)-hydroxy-methyl]-4,5-dihydro-1H-pyrazole] returned an Emax of 49 fold and an EC50 of 368 nM.

`Cc1cc(F)ncc1-c1ccc(C2CC(C(O)(C(F)(F)F)C(F)(F)F)=NN2c2ccc(F)cc2F)cc1` (stereo not drawn) [Example 384, 1-(2,4-difluoro-phenyl)-5-[4-(6-fluoro-4-methyl-pyridin-3-yl)-phenyl]-3-[di-(trifluoromethyl)-hydroxy-methyl]-4,5-dihydro-1H-pyrazole] yielded an Emax of 46 fold and an EC50 of 94 nM.

For the compound `OC(C1=NN(c2ccc(F)cc2F)C(c2ccc(-c3ccccn3)cc2)C1)(C(F)(F)F)C(F)(F)F` (stereo not drawn) [Example 385, 1-(2,4-difluoro-phenyl)-5-[4-pyridin-2-yl-phenyl]-3-[di-(trifluoromethyl)-hydroxy-methyl]-4,5-dihydro-1H-pyrazole], the Emax worked out at 60 fold and the EC50 is 771 nM.

In the case of `CN(CCO)S(=O)(=O)c1ccc(-c2ccc(C3CC(C(O)(C(F)(F)F)C(F)(F)F)=NN3c3ccc(F)cc3F)cc2)cc1` (stereo not drawn) [Example 386, 1-(2,4-difluoro-phenyl)-5-{4′-[(2-hydroxy-ethyl)-methyl-sulfamoyl]-biphenyl-4-yl}-3-[di-(trifluoromethyl)-hydroxy-methyl]-4,5-dihydro-1H-pyrazole], the Emax was found to be 35 fold and the EC50 was 170 nM.

Compound `CS(=O)(=O)c1ccc(-c2ccc(C3CC(C(O)(C(F)(F)F)C(F)(F)F)=NN3c3ccc(F)cc3F)cc2)cc1F` (stereo not drawn) [Example 387, 1-(2,4-difluoro-phenyl)-5-(3′-fluoro-4′-methanesulfonyl-biphenyl-4-yl)-3-[di-(trifluoromethyl)-hydroxy-methyl]-4,5-dihydro-1H-pyrazole] registered an Emax of 27 fold and an EC50 of 47 nM.

`CS(=O)(=O)c1c(F)cc(-c2ccc(C3CC(C(O)(C(F)(F)F)C(F)(F)F)=NN3c3ccc(F)cc3F)cc2)cc1F` (stereo not drawn) [Example 388, 1-(2,4-difluoro-phenyl)-5-(3′,5′-difluoro-4′-methanesulfonyl-biphenyl-4-yl)-3-[di-(trifluoromethyl)-hydroxy-methyl]-4,5-dihydro-1H-pyrazole] registered an Emax of 25 fold and a 50% effective concentration (EC50) of 60 nM.
